{"source": "the supplement of paper PMC9663587", "key": {"LEE011/Ribociclib": {"compound": "CN(C)C(=O)c1cc2cnc(Nc3ccc(N4CCNCC4)cn3)nc2n1C1CCCC1 [LEE011/Ribociclib]", "experiment": "increase in dead-cell fraction, 72 h; higher = more death;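 also: breast cancer cell lines in 384-well plates, stained with Hoechst plus LIVE/DEAD far red dye and imaged, cells above an LDR intensity threshold counted dead, Hoechst-negative corpses included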"}, "Neratinib/HKI272": {"compound": "CCOc1cc2ncc(C#N)c(Nc3ccc(OCc4ccccn4)c(Cl)c3)c2cc1NC(=O)/C=C/CN(C)C [Neratinib/HKI272]", "experiment": "increase in dead-cell fraction, 72 h; higher = more death"}, "[1]": {"compound": "CC(=O)c1c(C)c2cnc(Nc3ccc(N4CCNCC4)cn3)nc2n(C2CCCC2)c1=O", "experiment": "increase in dead-cell fraction, 72 h; higher = more death"}, "[2]": {"compound": "CCN1CCN(Cc2ccc(Nc3ncc(F)c(-c4cc(F)c5nc(C)n(C(C)C)c5c4)n3)nc2)CC1", "experiment": "increase in dead-cell fraction, 72 h; higher = more death"}, "THZ1": {"compound": "CN(C)C/C=C/C(=O)Nc1ccc(C(=O)Nc2cccc(Nc3ncc(Cl)c(-c4c[nH]c5ccccc45)n3)c2)cc1 [THZ1]", "experiment": "increase in dead-cell fraction, 72 h; higher = more death"}, "[3]": {"compound": "CCc1cnn2c(NCc3ccc[n+]([O-])c3)cc(N3CCCC[C@H]3CCO)nc12", "experiment": "increase in dead-cell fraction, 72 h; higher = more death"}, "BSJ-03-123": {"compound": "CC(=O)c1c(C)c2cnc(Nc3ccc(N4CCN(CCOCCOCCOCCNC(=O)COc5cccc6c5C(=O)N(C5CCC(=O)NC5=O)C6=O)CC4)cn3)nc2n(C2CCCC2)c1=O [BSJ-03-123]", "experiment": "increase in dead-cell fraction, 72 h; higher = more death"}, "Flavopiridol": {"compound": "CN1CC[C@H](c2c(O)cc(O)c3c(=O)cc(-c4ccccc4Cl)oc23)[C@H](O)C1 [Flavopiridol]", "experiment": "increase in dead-cell fraction, 72 h; higher = more death"}, "Vorinostat": {"compound": "O=C(CCCCCCC(=O)Nc1ccccc1)NO [Vorinostat]"}, "[4]": {"compound": "COc1ccc2c(c1)[C@]1(C[C@H]1c1ccc3c(/C=C/c4ccc(CN5C[C@@H](C)O[C@@H](C)C5)cc4)n[nH]c3c1)C(=O)N2"}, "[5]": {"compound": "CCN1CCN(Cc2ccc(Nc3ncc(F)c(-c4cc(F)c5nc(C)n(C(C)C)c5c4)n3)nc2)CC1"}, "[6]": {"compound": "CCC1=CN=CN=C1N2CCN(CC2)CC3=NC4=C(N3)C=C(C=C4)C(F)(F)F"}, "BSJ-01-175": {"compound": "CN(C)C/C=C/C(=O)Nc1ccc(O[C@@H]2CCC[C@@H](Nc3ncc(Cl)c(-c4c[nH]c5ccccc45)n3)C2)cc1 [BSJ-01-175]"}, "AZD2014": {"compound": "CNC(=O)c1cccc(-c2ccc3c(N4CCOC[C@@H]4C)nc(N4CCOC[C@@H]4C)nc3n2)c1 [AZD2014]"}, "Ipatasertib/GDC0068": {"compound": "CC(C)NC[C@@H](C(=O)N1CCN(c2ncnc3c2[C@H](C)C[C@H]3O)CC1)c1ccc(Cl)cc1 [Ipatasertib/GDC0068]"}, "AZD7762": {"compound": "NC(=O)Nc1cc(-c2cccc(F)c2)sc1C(=O)N[C@H]1CCCNC1 [AZD7762]"}, "Tivantinib/ARQ197": {"compound": "O=C1NC(=O)[C@@H](c2cn3c4c(cccc24)CCC3)[C@@H]1c1c[nH]c2ccccc12 [Tivantinib/ARQ197]"}, "[7]": {"compound": "CC(=O)Nc1cccc(-n2c(=O)n(C3CC3)c(=O)c3c(Nc4ccc(I)cc4F)n(C)c(=O)c(C)c32)c1"}}}
{"cell line": "MGH312", "values": [{"measurement": "increase in dead-cell fraction", "setting": "LEE011/Ribociclib; 0.001 µM", "value": -0.0153}, {"measurement": "increase in dead-cell fraction", "setting": "LEE011/Ribociclib; 0.003162 µM", "value": -0.0081}, {"measurement": "increase in dead-cell fraction", "setting": "LEE011/Ribociclib; 0.01 µM", "value": 0.0061}, {"measurement": "increase in dead-cell fraction", "setting": "LEE011/Ribociclib; 0.03162 µM", "value": -0.0004}, {"measurement": "increase in dead-cell fraction", "setting": "LEE011/Ribociclib; 0.1 µM", "value": 0.001}, {"measurement": "increase in dead-cell fraction", "setting": "LEE011/Ribociclib; 0.3162 µM", "value": -0.0068}, {"measurement": "increase in dead-cell fraction", "setting": "LEE011/Ribociclib; 1 µM", "value": 0.006}, {"measurement": "increase in dead-cell fraction", "setting": "LEE011/Ribociclib; 3.162 µM", "value": 0.004}, {"measurement": "increase in dead-cell fraction", "setting": "LEE011/Ribociclib; 10 µM", "value": -0.0032}, {"measurement": "increase in dead-cell fraction", "setting": "Neratinib/HKI272; 0.0003162 µM", "value": -0.0056}, {"measurement": "increase in dead-cell fraction", "setting": "Neratinib/HKI272; 0.001 µM", "value": -0.0054}, {"measurement": "increase in dead-cell fraction", "setting": "Neratinib/HKI272; 0.003162 µM", "value": -0.0078}, {"measurement": "increase in dead-cell fraction", "setting": "Neratinib/HKI272; 0.01 µM", "value": 0.0126}, {"measurement": "increase in dead-cell fraction", "setting": "Neratinib/HKI272; 0.03162 µM", "value": 0.0263}, {"measurement": "increase in dead-cell fraction", "setting": "Neratinib/HKI272; 0.1 µM", "value": 0.0191}, {"measurement": "increase in dead-cell fraction", "setting": "Neratinib/HKI272; 0.3162 µM", "value": 0.0224}, {"measurement": "increase in dead-cell fraction", "setting": "Neratinib/HKI272; 1 µM", "value": 0.0395}, {"measurement": "increase in dead-cell fraction", "setting": "Neratinib/HKI272; 3.162 µM", "value": 0.0962}, {"measurement": "increase in dead-cell fraction", "setting": "[1]; 0.0003162 µM", "value": -0.0083}, {"measurement": "increase in dead-cell fraction", "setting": "[1]; 0.001 µM", "value": -0.0121}, {"measurement": "increase in dead-cell fraction", "setting": "[1]; 0.003162 µM", "value": 0.0011}, {"measurement": "increase in dead-cell fraction", "setting": "[1]; 0.01 µM", "value": -0.0042}, {"measurement": "increase in dead-cell fraction", "setting": "[1]; 0.03162 µM", "value": 0.001}, {"measurement": "increase in dead-cell fraction", "setting": "[1]; 0.1 µM", "value": -0.0039}, {"measurement": "increase in dead-cell fraction", "setting": "[1]; 0.3162 µM", "value": 0.003}, {"measurement": "increase in dead-cell fraction", "setting": "[1]; 1 µM", "value": 0.0034}, {"measurement": "increase in dead-cell fraction", "setting": "[1]; 3.162 µM", "value": 0.0037}, {"measurement": "increase in dead-cell fraction", "setting": "[2]; 0.001 µM", "value": -0.0051}, {"measurement": "increase in dead-cell fraction", "setting": "[2]; 0.003162 µM", "value": -0.0048}, {"measurement": "increase in dead-cell fraction", "setting": "[2]; 0.01 µM", "value": -0.0002}, {"measurement": "increase in dead-cell fraction", "setting": "[2]; 0.03162 µM", "value": -0.0029}, {"measurement": "increase in dead-cell fraction", "setting": "[2]; 0.1 µM", "value": -0.0075}, {"measurement": "increase in dead-cell fraction", "setting": "[2]; 0.3162 µM", "value": 0.0016}, {"measurement": "increase in dead-cell fraction", "setting": "[2]; 1 µM", "value": -0.0026}, {"measurement": "increase in dead-cell fraction", "setting": "[2]; 3.162 µM", "value": 0.0207}, {"measurement": "increase in dead-cell fraction", "setting": "[2]; 10 µM", "value": 0.208}, {"measurement": "increase in dead-cell fraction", "setting": "THZ1; 0.0001 µM", "value": -0.0154}, {"measurement": "increase in dead-cell fraction", "setting": "THZ1; 0.0003162 µM", "value": 0}, {"measurement": "increase in dead-cell fraction", "setting": "THZ1; 0.001 µM", "value": -0.0061}, {"measurement": "increase in dead-cell fraction", "setting": "THZ1; 0.003162 µM", "value": 0.0002}, {"measurement": "increase in dead-cell fraction", "setting": "THZ1; 0.01 µM", "value": 0.0559}, {"measurement": "increase in dead-cell fraction", "setting": "THZ1; 0.03162 µM", "value": 0.541}, {"measurement": "increase in dead-cell fraction", "setting": "THZ1; 0.1 µM", "value": 0.684}, {"measurement": "increase in dead-cell fraction", "setting": "THZ1; 0.3162 µM", "value": 0.628}, {"measurement": "increase in dead-cell fraction", "setting": "THZ1; 1 µM", "value": 0.699}, {"measurement": "increase in dead-cell fraction", "setting": "[3]; 0.0001 µM", "value": 0.0027}, {"measurement": "increase in dead-cell fraction", "setting": "[3]; 0.0003162 µM", "value": 0.0051}, {"measurement": "increase in dead-cell fraction", "setting": "[3]; 0.001 µM", "value": -0.0065}, {"measurement": "increase in dead-cell fraction", "setting": "[3]; 0.003162 µM", "value": -0.0023}, {"measurement": "increase in dead-cell fraction", "setting": "[3]; 0.01 µM", "value": 0.0052}, {"measurement": "increase in dead-cell fraction", "setting": "[3]; 0.03162 µM", "value": 0.481}, {"measurement": "increase in dead-cell fraction", "setting": "[3]; 0.1 µM", "value": 0.649}, {"measurement": "increase in dead-cell fraction", "setting": "[3]; 0.3162 µM", "value": 0.713}, {"measurement": "increase in dead-cell fraction", "setting": "[3]; 1 µM", "value": 0.67}, {"measurement": "increase in dead-cell fraction", "setting": "BSJ-03-123; 0.001 µM", "value": -0.0024}, {"measurement": "increase in dead-cell fraction", "setting": "BSJ-03-123; 0.003162 µM", "value": 0.0067}, {"measurement": "increase in dead-cell fraction", "setting": "BSJ-03-123; 0.01 µM", "value": 0.0098}, {"measurement": "increase in dead-cell fraction", "setting": "BSJ-03-123; 0.03162 µM", "value": -0.0134}, {"measurement": "increase in dead-cell fraction", "setting": "BSJ-03-123; 0.1 µM", "value": 0.0037}, {"measurement": "increase in dead-cell fraction", "setting": "BSJ-03-123; 0.3162 µM", "value": 0.0116}, {"measurement": "increase in dead-cell fraction", "setting": "BSJ-03-123; 1 µM", "value": 0.0094}, {"measurement": "increase in dead-cell fraction", "setting": "BSJ-03-123; 3.162 µM", "value": 0.0031}, {"measurement": "increase in dead-cell fraction", "setting": "BSJ-03-123; 10 µM", "value": 0.55}, {"measurement": "increase in dead-cell fraction", "setting": "Flavopiridol; 0.0001 µM", "value": -0.004}, {"measurement": "increase in dead-cell fraction", "setting": "Flavopiridol; 0.0003162 µM", "value": -0.0016}, {"measurement": "increase in dead-cell fraction", "setting": "Flavopiridol; 0.001 µM", "value": -0.0079}, {"measurement": "increase in dead-cell fraction", "setting": "Flavopiridol; 0.003162 µM", "value": 0.013}, {"measurement": "increase in dead-cell fraction", "setting": "Flavopiridol; 0.01 µM", "value": 0.0083}, {"measurement": "increase in dead-cell fraction", "setting": "Flavopiridol; 0.03162 µM", "value": -0.0027}, {"measurement": "increase in dead-cell fraction", "setting": "Flavopiridol; 0.1 µM", "value": 0.0209}, {"measurement": "increase in dead-cell fraction", "setting": "Flavopiridol; 0.3162 µM", "value": 0.249}, {"measurement": "increase in dead-cell fraction", "setting": "Flavopiridol; 1 µM", "value": 0.705}, {"measurement": "GR50, 72 h", "setting": "Vorinostat", "value": 0.799, "unit": "µM"}, {"measurement": "GR50, 72 h", "setting": "[4]", "value": 0.00114, "unit": "µM"}, {"measurement": "GR50, 72 h", "setting": "[5]", "value": 2.43, "unit": "µM"}, {"measurement": "GR50, 72 h", "setting": "[6]", "value": 4.84, "unit": "µM"}, {"measurement": "GR50, 72 h", "setting": "BSJ-01-175", "value": 0.00657, "unit": "µM"}, {"measurement": "GR50, 72 h", "setting": "AZD2014", "value": "< 0.001", "unit": "µM"}, {"measurement": "GR50, 72 h", "setting": "Ipatasertib/GDC0068", "value": 0.037, "unit": "µM"}, {"measurement": "GR50, 72 h", "setting": "AZD7762", "value": 0.202, "unit": "µM"}, {"measurement": "GR50, 72 h", "setting": "Tivantinib/ARQ197", "value": 0.379, "unit": "µM"}, {"measurement": "GR50, 72 h", "setting": "[7]", "value": "> 1", "unit": "µM"}]}
